Test results reported in ChEMBL document CHEMBL5465560, “Selectivity Literature for EUbOPEN Chemogenomic Library” (2024).

How the values were obtained:
[1] = target: Serine/threonine-protein kinase 35 (Homo sapiens) (UniProt Q8TDR2); assay: Selectivity interaction (KinomeScan (DiscoverX)) EUB0001079a STK35; conditions: at 1 µM
[2] = target: Calcium/calmodulin-dependent protein kinase type II subunit alpha (Homo sapiens, UniProt Q9UQM7); assay: Selectivity interaction (Upstate Kinase Profiler service (Millipore)) EUB0000056c CAMK2A; conditions: at 1 µM
Calcium/calmodulin-dependent protein kinase type II subunit alpha, sequence (Q9UQM7 whole entry): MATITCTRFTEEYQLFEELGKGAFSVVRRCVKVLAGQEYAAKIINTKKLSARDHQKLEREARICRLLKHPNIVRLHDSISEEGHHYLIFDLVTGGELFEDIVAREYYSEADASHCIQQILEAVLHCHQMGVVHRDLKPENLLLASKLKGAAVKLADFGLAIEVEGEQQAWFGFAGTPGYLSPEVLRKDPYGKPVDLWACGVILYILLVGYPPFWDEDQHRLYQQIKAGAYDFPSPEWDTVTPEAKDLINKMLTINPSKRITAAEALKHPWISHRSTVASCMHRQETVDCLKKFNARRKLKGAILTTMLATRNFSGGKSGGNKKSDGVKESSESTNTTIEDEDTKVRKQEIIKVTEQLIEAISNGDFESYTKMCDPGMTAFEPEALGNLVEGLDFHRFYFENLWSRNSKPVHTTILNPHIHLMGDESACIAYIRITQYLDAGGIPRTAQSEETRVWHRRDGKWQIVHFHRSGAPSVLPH

[3] = target: Calcium/calmodulin-dependent protein kinase type II subunit delta (Homo sapiens) (UniProt Q13557); assay: Selectivity interaction (ActivX KiNativ screen (ex vivo kinase selectivity in human PBMCs)) EUB0001619a CAMK2D; type: cell-based; conditions: PBMC, at 1 µM
Calcium/calmodulin-dependent protein kinase type II subunit delta (Homo sapiens), sequence (Q13557 whole entry): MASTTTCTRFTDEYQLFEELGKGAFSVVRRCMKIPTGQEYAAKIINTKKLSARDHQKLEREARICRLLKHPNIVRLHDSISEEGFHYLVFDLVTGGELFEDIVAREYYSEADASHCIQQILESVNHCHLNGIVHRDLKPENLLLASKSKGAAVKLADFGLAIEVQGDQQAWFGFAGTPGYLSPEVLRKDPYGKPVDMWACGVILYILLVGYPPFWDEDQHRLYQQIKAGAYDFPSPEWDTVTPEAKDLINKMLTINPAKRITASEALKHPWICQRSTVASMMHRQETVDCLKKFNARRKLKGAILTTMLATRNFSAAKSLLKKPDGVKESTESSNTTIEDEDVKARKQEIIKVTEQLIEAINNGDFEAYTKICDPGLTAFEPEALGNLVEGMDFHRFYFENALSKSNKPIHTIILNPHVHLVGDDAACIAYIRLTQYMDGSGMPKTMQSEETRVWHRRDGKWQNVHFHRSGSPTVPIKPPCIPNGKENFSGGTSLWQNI

[4] = target: T1, Dual specificity mitogen-activated protein kinase kinase 4 (Homo sapiens) (UniProt P45985); assay: Selectivity interaction (KinomeScan (DiscoverX)) EUB0000618a MAP2K4; conditions: at 10 µM
T1 sequence (whole entry): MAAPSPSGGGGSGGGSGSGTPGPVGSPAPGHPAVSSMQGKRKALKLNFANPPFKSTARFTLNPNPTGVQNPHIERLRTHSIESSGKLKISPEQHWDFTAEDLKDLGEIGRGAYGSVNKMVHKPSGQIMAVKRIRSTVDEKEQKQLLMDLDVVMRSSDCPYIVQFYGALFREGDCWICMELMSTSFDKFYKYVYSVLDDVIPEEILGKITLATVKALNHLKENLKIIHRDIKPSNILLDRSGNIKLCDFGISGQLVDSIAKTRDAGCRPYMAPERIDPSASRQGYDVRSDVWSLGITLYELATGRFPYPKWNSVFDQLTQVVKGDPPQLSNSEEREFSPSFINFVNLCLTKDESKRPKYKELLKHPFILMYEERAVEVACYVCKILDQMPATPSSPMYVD

[5] = target: T2, Ephrin type-A receptor 6 (Homo sapiens) (UniProt Q9UF33); assay: Selectivity interaction (KinomeScan (DiscoverX)) EUB0000618a EPHA6; conditions: at 10 µM
T2 sequence (whole entry): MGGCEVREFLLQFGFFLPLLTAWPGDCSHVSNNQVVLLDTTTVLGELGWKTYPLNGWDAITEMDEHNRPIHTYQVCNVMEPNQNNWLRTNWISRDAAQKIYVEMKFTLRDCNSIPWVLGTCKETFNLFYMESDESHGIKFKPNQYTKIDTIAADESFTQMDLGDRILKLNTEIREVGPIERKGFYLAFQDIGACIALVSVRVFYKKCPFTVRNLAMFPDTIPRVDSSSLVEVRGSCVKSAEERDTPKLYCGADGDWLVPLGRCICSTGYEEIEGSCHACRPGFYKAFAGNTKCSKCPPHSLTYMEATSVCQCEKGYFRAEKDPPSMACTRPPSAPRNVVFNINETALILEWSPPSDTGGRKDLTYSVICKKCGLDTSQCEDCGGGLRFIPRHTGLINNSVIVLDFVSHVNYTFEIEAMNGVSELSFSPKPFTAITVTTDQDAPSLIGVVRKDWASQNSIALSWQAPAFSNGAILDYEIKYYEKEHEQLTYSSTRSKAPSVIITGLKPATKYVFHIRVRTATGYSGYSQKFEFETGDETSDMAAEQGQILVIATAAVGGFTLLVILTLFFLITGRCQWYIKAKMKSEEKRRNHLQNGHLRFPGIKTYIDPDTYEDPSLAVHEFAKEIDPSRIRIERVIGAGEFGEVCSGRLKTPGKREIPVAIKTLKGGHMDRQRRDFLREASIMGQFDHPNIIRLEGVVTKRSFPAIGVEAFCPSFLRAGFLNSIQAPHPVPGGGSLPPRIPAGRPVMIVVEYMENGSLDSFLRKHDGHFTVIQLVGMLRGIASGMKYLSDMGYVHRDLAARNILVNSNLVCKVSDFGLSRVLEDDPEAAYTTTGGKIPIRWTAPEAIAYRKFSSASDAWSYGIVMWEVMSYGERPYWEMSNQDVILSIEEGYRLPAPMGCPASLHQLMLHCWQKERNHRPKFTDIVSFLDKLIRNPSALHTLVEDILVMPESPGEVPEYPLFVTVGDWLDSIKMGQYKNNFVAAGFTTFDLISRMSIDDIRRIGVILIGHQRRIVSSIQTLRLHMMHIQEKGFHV

[6] = target: T3, cGMP-dependent protein kinase 1 (Homo sapiens) (UniProt Q13976); assay: Selectivity interaction (KinomeScan (DiscoverX)) EUB0000618a PRKG1; conditions: at 10 µM
T3 sequence (whole entry): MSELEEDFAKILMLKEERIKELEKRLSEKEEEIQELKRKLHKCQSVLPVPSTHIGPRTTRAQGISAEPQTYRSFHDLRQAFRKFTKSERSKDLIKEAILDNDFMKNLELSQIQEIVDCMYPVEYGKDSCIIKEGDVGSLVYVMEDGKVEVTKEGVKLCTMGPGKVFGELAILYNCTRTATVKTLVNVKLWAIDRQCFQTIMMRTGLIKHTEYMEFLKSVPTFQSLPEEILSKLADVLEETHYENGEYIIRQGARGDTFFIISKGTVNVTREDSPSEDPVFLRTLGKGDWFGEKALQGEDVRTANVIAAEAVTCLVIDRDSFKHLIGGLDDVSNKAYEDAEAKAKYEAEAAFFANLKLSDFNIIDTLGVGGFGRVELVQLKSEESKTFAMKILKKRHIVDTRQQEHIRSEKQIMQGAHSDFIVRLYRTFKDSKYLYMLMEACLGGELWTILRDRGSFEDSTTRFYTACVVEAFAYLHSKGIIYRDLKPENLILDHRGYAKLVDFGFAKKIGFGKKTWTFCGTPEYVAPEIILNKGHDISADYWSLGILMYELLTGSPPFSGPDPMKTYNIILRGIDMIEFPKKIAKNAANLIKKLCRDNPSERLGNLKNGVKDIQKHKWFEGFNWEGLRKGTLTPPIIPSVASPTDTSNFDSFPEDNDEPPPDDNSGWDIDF

[7] = target: T4, Tyrosine-protein kinase TXK (Homo sapiens) (UniProt P42681); assay: Selectivity interaction (KinomeScan (DiscoverX)) EUB0000607a TXK; conditions: at 10 µM
T4 sequence (whole entry): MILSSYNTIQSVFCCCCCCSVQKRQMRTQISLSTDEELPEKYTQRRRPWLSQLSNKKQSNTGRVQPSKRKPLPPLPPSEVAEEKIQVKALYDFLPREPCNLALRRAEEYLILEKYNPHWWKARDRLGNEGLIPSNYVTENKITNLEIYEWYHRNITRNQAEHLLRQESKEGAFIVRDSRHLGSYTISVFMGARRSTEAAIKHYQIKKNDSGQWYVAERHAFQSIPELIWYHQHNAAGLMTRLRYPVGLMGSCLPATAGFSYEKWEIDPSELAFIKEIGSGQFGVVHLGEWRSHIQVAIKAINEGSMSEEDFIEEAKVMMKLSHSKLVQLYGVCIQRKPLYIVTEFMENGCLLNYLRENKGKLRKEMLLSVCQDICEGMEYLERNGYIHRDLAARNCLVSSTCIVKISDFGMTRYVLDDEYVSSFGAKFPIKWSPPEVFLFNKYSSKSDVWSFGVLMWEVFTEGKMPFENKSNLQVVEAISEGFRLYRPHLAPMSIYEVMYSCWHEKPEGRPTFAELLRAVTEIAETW

Serine/threonine-protein kinase 35 (Homo sapiens), sequence (Q8TDR2 whole entry): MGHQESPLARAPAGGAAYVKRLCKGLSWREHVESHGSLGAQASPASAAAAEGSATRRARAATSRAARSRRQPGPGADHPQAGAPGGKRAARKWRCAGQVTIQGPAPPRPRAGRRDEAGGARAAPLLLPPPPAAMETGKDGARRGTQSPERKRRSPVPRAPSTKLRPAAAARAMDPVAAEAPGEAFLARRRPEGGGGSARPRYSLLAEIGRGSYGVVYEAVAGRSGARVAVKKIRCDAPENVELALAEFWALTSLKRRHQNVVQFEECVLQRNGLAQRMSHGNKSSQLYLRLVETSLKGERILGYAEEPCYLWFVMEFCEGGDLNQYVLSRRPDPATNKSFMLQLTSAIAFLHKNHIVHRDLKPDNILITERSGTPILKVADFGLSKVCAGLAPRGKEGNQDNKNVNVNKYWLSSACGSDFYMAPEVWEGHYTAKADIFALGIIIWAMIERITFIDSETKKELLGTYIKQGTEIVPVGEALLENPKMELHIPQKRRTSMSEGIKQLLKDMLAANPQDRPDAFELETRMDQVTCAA

SMILES: Nc1cnc(N2CCc3cc(S(=O)(=O)Nc4c(F)cc(Cl)cc4F)cc(N4CCCC4=O)c32)nc1 [TP-020n]
- % of control [1]: 100%

SMILES: Cc1ccc(-c2ccc3c(ccc4sc5c(c43)NC[C@@H](C)NC5=O)n2)cn1
- % of inhibition [2]: 87%

SMILES: N#Cc1cccc(-c2c[nH]c3ncnc(N4CCOCC4)c23)c1
- % of inhibition [3]: 4%

SMILES: O[C@H]1CC[C@H](Nc2ncc3nc(Nc4c(F)cc(F)cc4F)n([C@H]4CCOC4)c3n2)CC1
- % of control [4]: 27%
- % of control [5]: 79%
- % of control [6]: 100%

SMILES: CNC(=O)Nc1ccc(-c2nc(N3CC4CCC(C3)O4)c3cnn(C4CCC5(CC4)OCCO5)c3n2)cc1
- % of control [7]: 94%
